Experimental data taken from patent US8207221B2, “Crystalline polymorphs of a CXC-chemokine receptor ligand” (Schering Corporation, priority 2004, dated 2012).

Test system: CXC-chemokine receptor
Test: activity as a CXC-chemokine receptor ligand
Details: qualitative statement, no method or figures given

SMILES | activity as a CXC-chemokine receptor ligand
CC[C@@H](Nc1c(Nc2cccc(C(=O)N(C)C)c2O)c(=O)c1=O)c1ccc(C)o1 [monohydrate form of Compound A] | substantially similar activity
CC[C@@H](Nc1c(Nc2cccc(C(=O)N(C)C)c2O)c(=O)c1=O)c1ccc(C)o1 [Anhydrous Compound A] | particularly active
